Measured values as given in patent US9629362B1, “Methods for killing insects using methyl benzoate” (The United States of America, as represented by the …, priority 2016, dated 2017).
“Also recorded” adds a separate entry of the source. Like-named read-outs stand apart in the source and are kept apart here. Marks after values point to notes of the source that are not given here.

Key:
D. suzukii = assay: Oviposition deterrent / adult toxicity of MB and other VOCs on pre-treated blueberries; assay type: in vivo, Drosophila suzukii; conditions: for Activity against adult D. suzukii: 2 days exposure to pre-treated blueberries; for Toxicity / mortality against adult D. suzukii: blueberries soaked 2 h, 48 h (2 days) exposure; for Adults emerged from pre-treated berries / Pupae developed from pre-treated berries compared with blank control: further 10 days incubation at room temperature
Method: Mortality assessed after 48 hrs exposure to pre-treated blueberries (60 berries/treatment, 1% solution soaking for 2 hr) as described below.
Numbers assessed after 10 days incubation at room temperature as described below.
Mortality assessed after 48 hrs exposure to pre-treated blueberries (60 berries/treatment, soaking for 2 hr) as described below.
Numbers assessed after 10 days incubation at room temperature.
(§1) Laboratory bioassay: Bioassays were conducted in USDA Beltsville laboratory at 25° C., 60% RH, under a 16L:8D photoperiod with ˜1700 lux light illuminance. A fume hood was maintained at same conditions with face velocity at 129 FPM. The plastic cups (32 oz, diameter 4.5 inches, deep 5 inches, or 16 oz, diameter 4.5 inches, deep 2.5 inches) were purchased from papermart.com (CA). The cover was cut into a 80 mm diameter hole and glued with an 85 mm diameter Nylon screen mesh (81×81 per inch) mesh size, BioQuip, CA). The polystyrene vials (height 95 mm, diameter 28.5 mm) and plugs were obtained from Fisher Scientific (Pittsburg, Pa.). The plastic cage (30×30×30 cm) was purchased from BugDorm (Rancho Dominguez, Calif.). Glass vial (20 mL), glass spray bottle (Amber glass with spray top, 30 mL), Petri dish (9 cm diameter), and Whatman filter paper (90 mm diameter) were obtained from VWR (Atlanta, Ga.). Deionized water (DI) containing 1% emulsifier (v/v), Tween 20 and Tween 80, at 1.1 ratio was used to make different VOCs water solutions and also used as blank control.
Evaluation of MB and other VOCs as oviposition deterrent against D. suzukii: To examine the oviposition deterrent property of MB and other essential oils against D. suzukii, 10 blueberries were separately dipped in 100 mL MB or other essential oil aqueous emulsions at 1% concentration for 2 h. Another 10 blueberries were dipped in 100 mL DI water for 2 h as control. The blueberries were separately placed on different Petri dishes and allowed to air dry for 2 h. After a Petri dish containing 10 treated blueberries was put into a plastic cup (32 oz), 10 mixed sex adults D. suzukii were subsequently introduced into each cup. Mortality of the D. suzukii was examined after 48 h. After removing all insects, the blueberries were maintained at room temperature for another 10 days. Present of adults were subsequently assessed and development of larvae and pupae was further inspected by dissection of the berries.

Drosophila suzukii = assay: Impact of MB on D. suzukii control: pre-infested blueberries dipped in MB emulsion; assay type: in vivo; conditions: 1% MB, berries pre-infested 4 days, dipped 2 h, 10 days incubation at room temperature
Method: Assessment was conducted after 10 days incubation at room temperature.
as §1, with “Deionized water (DI) containing 1% emulsifier (v/v), Tween 20 and Tween 80, at 1.1 ratio was used to make different VOCs water solutions and also used as blank control.” left out
Impact of MB on D. suzukii control: To investigate the acute toxicity of MB against D. suzukii, 100 blueberries were placed in a plastic cage (30×30×30 cm) and infested by 100 mixed sex adult D. suzukii for 4 days. […] Present of adults were then subsequently assessed and development of larvae and pupae was further inspected by dissection of the berries. […]

[1] = by ingestion and inhalation; cited from earlier work
P. xylostella eggs = assay type: in vivo
Method: (§2) Ovicidal toxicity of MB and commercial pesticides: The aqueous solutions of MB with designated concentrations and commercially available pesticides with different concentrations of active ingredient (AI) were separately stored in glass spray bottles. The eggs (10 for H. halys and M. sexta, 100 for P. xylostella) were laid on filter papers in Petri dishes. Different aqueous solutions were sprayed on the surfaces of different eggs three times (˜0.5 mL) to completely cover the treatment areas. Then Petri dishes were covered with lids and maintained in a fume hood for 10 days. The Petri dishes were then inspected for presence of nymph/larvae development or numbers of unhatched eggs.
(§3) Data analysis: Comparisons of different treatments were analyzed using one-way ANOVA followed by Ryan-Eibot-Gabriel-Welsch F test (SPSS 10.0 for Windows (George, D., and P. Mallery, SPSS for Windows step by step: A simple guide and reference, 4th edition, Allyn & Bacon, 2002)) for significance at α=0.05.

H. halys eggs = assay type: in vivo
Method: as §2, §3

M. sexta eggs = assay type: in vivo
Method: as §2, §3

H. halys nymphs = assay: Toxicity of MB against H. halys nymphs (treated filter paper in glass vial); assay type: in vivo, Halyomorpha halys; conditions: mortality after 24 hr
Method: Toxicity of MB against H. halys nymphs: The bioassays were carried out in glass vials (20 mL). Filter paper was cut into round shaped pieces (2.4 cm diameter). 50 μL MB acetone solution with different concentrations was loaded onto the filter paper evenly, and the filter paper was dried for 1 min and then put into the bottom of the vial. A small piece of green bean was put on the filter paper in the vial as food source. Different stages of H. halys nymphs were introduced into the vial and capped with a cotton ball. For each stage, 30 nymphs were used for each amount of MB loading. For the nymphs of the first instar, 10 nymphs were put into 1 vial. For the nymphs of the second and third instar, 5 nymphs were put into 1 vial. For the nymphs of the fourth instar, 3 nymphs were put into 1 vial. For the nymphs of the fifth instar, 2 nymphs were put into 1 vial. The mortality was assessed after 24 hr.
as §3

SMILES: COC(=O)c1ccccc1 [MB, methyl benzoate]
- Activity against adult D. suzukii (D. suzukii; 0.1% MB): no significant activity
- Activity against adult D. suzukii (D. suzukii; 0.5% MB): Little activity
- Toxicity / mortality against adult D. suzukii (D. suzukii; 1% solution): complete mortality; also recorded: potent activity
- Toxicity / mortality against adult D. suzukii (D. suzukii; 1% solution, listed as methyl benzoate): complete mortality
- Adults emerged from pre-treated berries (D. suzukii; 1% solution): no adults emerged
- Pupae developed from pre-treated berries compared with blank control (D. suzukii; 1% solution): significantly fewer pupae developed
- Activity against adult D. suzukii (D. suzukii; 5% MB): potent activity
- Adults emerged from pre-treated berries (D. suzukii; 5% MB): no adults emerged
- Pupae developed from pre-treated berries compared with blank control (D. suzukii; 5% MB): significantly fewer pupae developed
- Larvae/pupae development and adult emergence from pre-infested blueberries (Drosophila suzukii): no larvae and pupae developed or adult flies emerged
- Mortality of D. suzukii in pre-infested blueberries (Drosophila suzukii): complete mortality
- Human toxicity [1]: low to moderate human toxicity
- Dose needed to reach 100% egg mortality (P. xylostella eggs; P. xylostella eggs): 0.0064 mg/cm^2
- Hatchability (%) (mean ± SE) (P. xylostella eggs; P. xylostella eggs, MB 0.025%, AI dose 0.0016 mg/cm^2, 10 days exposure): 38 ± 5.5^c %
- Hatchability (%) (mean ± SE) (P. xylostella eggs; P. xylostella eggs, MB 0.05%, AI dose 0.0032 mg/cm^2, 10 days exposure): 13 ± 5.0^ab %
- Hatchability (%) (mean ± SE) (P. xylostella eggs; P. xylostella eggs, MB 0.1%, AI dose 0.0064 mg/cm^2, 10 days exposure): 0 ± 0.3^a %
- Hatchability (%) (mean ± SE) (P. xylostella eggs; P. xylostella eggs, MB 0.25, AI dose 0.0159 mg/cm^2, 10 days exposure): 1 ± 0.0^a %
- Hatchability (%) (mean ± SE) (P. xylostella eggs; P. xylostella eggs, MB 0.5%, AI dose 0.0318 mg/cm^2, 10 days exposure): 0 ± 0.0^a %
- Hatchability (%) (mean ± SE) (P. xylostella eggs; P. xylostella eggs, MB 1%, AI dose 0.0637 mg/cm^2, 10 days exposure): 0 ± 0.0^a %
- Ovicidal activity in words (P. xylostella eggs; P. xylostella eggs, MB at as low as 0.0032 mg/cm^2 dose): potent ovicidal activity
- Dose for 100% egg mortality of P. xylostella: times less than H. halys eggs needed (P. xylostella eggs; P. xylostella vs H. halys eggs): 10 times
- Dose for 100% egg mortality of P. xylostella: times less than M. sexta eggs needed (P. xylostella eggs; P. xylostella vs M. sexta eggs): 20 times
- LC50 (95% CL) (P. xylostella eggs; in vivo): 0.001 mg/cm^2
- LC95 (95% CL) (P. xylostella eggs; in vivo): 0.005 mg/cm^2
- Dosage (active ingredient) needed to reach 100% egg mortality (H. halys eggs; H. halys eggs): 0.0637 mg/cm^2
- Hatchability (%) (mean ± SE) (H. halys eggs; H. halys eggs, MB 0.025%, AI dose 0.0016 mg/cm^2, 10 days exposure): 67 ± 8.8^d %
- Hatchability (%) (mean ± SE) (H. halys eggs; H. halys eggs, MB 0.05%, AI dose 0.0032 mg/cm^2, 10 days exposure): 63 ± 17.6^cd %
- Hatchability (%) (mean ± SE) (H. halys eggs; H. halys eggs, MB 0.1%, AI dose 0.0064 mg/cm^2, 10 days exposure): 60 ± 10.0^cd %
- Hatchability (%) (mean ± SE) (H. halys eggs; H. halys eggs, MB 0.25, AI dose 0.0159 mg/cm^2, 10 days exposure): 43 ± 6.7^abcd %
- Hatchability (%) (mean ± SE) (H. halys eggs; H. halys eggs, MB 1%, AI dose 0.0637 mg/cm^2, 10 days exposure): 0 ± 0.0^a %
- Hatchability (%) (mean ± SE) (H. halys eggs; H. halys eggs, MB 2%, AI dose 0.1273 mg/cm^2, 10 days exposure): 0 ± 0.0^a %
- Hatchability (%) (mean ± SE) (H. halys eggs; H. halys eggs, MB 4%, AI dose 0.2546 mg/cm^2, 10 days exposure): 0 ± 0.0^a %
- Ovicidal potency compared with commercial pesticides, in words (H. halys eggs; H. halys eggs, MB at 0.0318 mg/cm^2 vs deltamethrin 0.0019, ζ-cypermethrin 0.0223, carbaryl 0.0080, β-cyfluthrin 0.1592, sulfur/pyrethrin 0.6525, organic essential oil product 0.3979 mg/cm^2): as potent as
- LC95 (95% CL) (H. halys eggs; H. halys eggs, spray, 10 days): 0.048 mg/cm^2
- Hatchability (%) (mean ± SE) (H. halys eggs; in vivo): 17 ± 12.0^ab %
- LC50 (95% CL) (H. halys eggs; in vivo): 0.020 mg/cm^2
- Times more toxic than organic commercial product (2-phenethyl propionate, clover oil, rosemary oil, thyme oil) (H. halys eggs; in vivo): 12 times
- Times more toxic than sulfur & pyrethrin mixture (H. halys eggs; in vivo): 20 times
- Times more toxic than the conventional pyrethroid (β-cyfluthrin) (H. halys eggs; in vivo): 5 times
- Ovicidal toxicity compared with commercial pesticides, in words (M. sexta eggs; M. sexta eggs, MB 0.0637 mg/cm^2 vs bifenthrin & ζ-cypermethrin 0.0239 and essential oil product 0.3979 mg/cm^2): significantly better
- Hatchability (%) (mean ± SE) (M. sexta eggs; M. sexta eggs, MB 0.025%, AI dose 0.0016 mg/cm^2, 10 days exposure): 67 ± 8.8^c %
- Hatchability (%) (mean ± SE) (M. sexta eggs; M. sexta eggs, MB 0.05%, AI dose 0.0032 mg/cm^2, 10 days exposure): 63 ± 8.8^c %
- Hatchability (%) (mean ± SE) (M. sexta eggs; M. sexta eggs, MB 0.1%, AI dose 0.0064 mg/cm^2, 10 days exposure): 50 ± 17.3^c %
- Hatchability (%) (mean ± SE) (M. sexta eggs; M. sexta eggs, MB 0.25, AI dose 0.0159 mg/cm^2, 10 days exposure): 40 ± 15.3^c %
- Hatchability (%) (mean ± SE) (M. sexta eggs; M. sexta eggs, MB 0.5%, AI dose 0.0318 mg/cm^2, 10 days exposure): 20 ± 10.0^abc %
- Hatchability (%) (mean ± SE) (M. sexta eggs; M. sexta eggs, MB 1%, AI dose 0.0637 mg/cm^2, 10 days exposure): 3 ± 3.35^ab %
- Hatchability (%) (mean ± SE) (M. sexta eggs; M. sexta eggs, MB 2%, AI dose 0.1273 mg/cm^2, 10 days exposure): 0 ± 0.0^a %
- Hatchability (%) (mean ± SE) (M. sexta eggs; M. sexta eggs, MB 4%, AI dose 0.2546 mg/cm^2, 10 days exposure): 0 ± 0.0^a %
- LC50 (95% CL) (M. sexta eggs; M. sexta eggs, spray, 10 days): 0.015 mg/cm^2
- LC95 (95% CL) (M. sexta eggs; M. sexta eggs, spray, 10 days): 0.060 mg/cm^2
- Toxicity against M. sexta eggs in words (M. sexta eggs; MB at 0.0637 mg/cm^2 dose): potent toxic agent
- LC50 (95% CL) (H. halys nymphs; 1st instar nymphs): 1.03 (0.93-1.10) μL/via1
- LC50 (95% CL) (H. halys nymphs; 2nd instar nymphs): 1.01 (0.86-1.12) μL/via1
- LC50 (95% CL) (H. halys nymphs; 3rd instar nymphs): 1.23 (1.12-1.33) μL/via1
- LC50 (95% CL) (H. halys nymphs; 4th instar nymphs): 2.39 (2.19-2.60) μL/via1
- LC50 (95% CL) (H. halys nymphs; 5th instar nymphs): 1.77 (1.60-1.93) μL/via1
